Experimental data published in publication PMC11971462, “Generation and validation of a novel multitarget small molecule in glioblastoma” (Cell Death & Disease, 2025).

System: U87-MG tumor cells
Experiment: Oncosphere formation from disaggregated treated tumors
Format: cell-based
Procedure: For oncosphere formation assay, cells were cultured in non-treated 48-well plates in DMEM/F12 medium supplemented with EGF and FGF and fresh media was added every 2 days. After 7 days, oncosphere formation was documented and the number of spheres was quantified using Qupath.
For tumor growth experiments, 5 × 10^5 U87-MG cells were subcutaneously injected into two bottom flanks of athymic nude-Foxn1^nu mice, and once tumors reached a size of 25-50 mm^3, mice were sorted into groups taking into account gender and tumor size. Afterwards, mice were intratumorally treated with vehicle, SAHA 100 µM or DDI199 100 µM following a schedule of 5 days on and 2 days off. In combined treatment, mice were treated intraperitoneally with 0.5 mg/Kg of TMZ for 5 days and intratumorally following a schedule of 5 days on and 2 days off with vehicle, SAHA 100 µM or DDI199 100 µM. After 4 weeks of treatment, some mice were kept for washout experiment, while the rest were sacrificed and tumors were extracted for immunohistochemistry and to disaggregate for reinjection and oncosphere formation studies. For reinjection assays, 1.5 × 10^5 cells were subcutaneously injected and tumor size was periodically measured. Once tumors reached end-point criteria, they were extracted for immunohistochemical analysis. […]

Structure (SMILES): C#CCN(Cc1cc2cc(OCCCN3CCCCC3)ccc2n1S(=O)(=O)c1ccccc1)C(=O)CCCCCCC(=O)NO [DDI199]
- Oncospheres formed by cells from treated tumors (GSC medium, 7 days): fewer oncospheres
- Oncospheres from treated tumors, combined with TMZ (TMZ plus DDI199 versus control and TMZ-treated cells): significantly lower number of oncospheres
